Measured values: BindingDB's records for doi:10.1016/j.bmc.2006.12.019 (Berlex, 2007)

molecular target: T1, Serine protease 1 (Bos taurus, UniProt P00760); assay: Enzyme Inhibition Assay
T1 sequence (P00760 whole entry): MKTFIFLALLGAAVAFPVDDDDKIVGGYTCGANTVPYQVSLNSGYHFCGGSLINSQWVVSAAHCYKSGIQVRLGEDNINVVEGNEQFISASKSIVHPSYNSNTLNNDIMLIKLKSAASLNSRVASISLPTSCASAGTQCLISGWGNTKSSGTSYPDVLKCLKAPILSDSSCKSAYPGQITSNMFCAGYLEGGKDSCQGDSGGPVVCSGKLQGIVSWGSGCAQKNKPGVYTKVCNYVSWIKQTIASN
Description: The enzyme activities were determined kinetically as the initial rate of cleavage of a peptide p-nitroanilide. Km for enzyme and substrate was determined using four substrate dilutions. Enzyme was incubated with test compounds for 10 min; the reaction was then started by the addition of the substrate. […] IC50 values for inhibitors were determined from the dose response curve by fitting the data to the Hill equation. Ki,app values were calculated as the IC50/2, with the IC50 value determined at a substrate concentration equal to Km

Ki, > 5 µM:
O=C(O)CN1CCN(Cc2ccc3c(Cl)c(C(=O)Nc4ccc(Cl)cc4C(=O)Nc4ccc(Cl)cc4)sc3c2)CC1 [2-(4-{[3-chloro-2-({4-chloro-2-[(4-chlorophenyl)carbamoyl]phenyl}carbamoyl)-1-benzothiophen-6-yl]methyl}piperazin-1-yl)acetic acid], O=C(Nc1ccc(Cl)cc1)c1cc(Cl)ccc1NC(=O)c1sc2ccccc2c1Cl [3-chloro-N-{4-chloro-2-[(4-chlorophenyl)carbamoyl]phenyl}-1-benzothiophene-2-carboxamide], O=C(Nc1ccc(Cl)cc1)c1cc(Cl)ccc1NC(=O)c1scc(Cn2ccnn2)c1Cl [3-chloro-N-{4-chloro-2-[(4-chlorophenyl)carbamoyl]phenyl}-4-(1H-1,2,3-triazol-1-ylmethyl)thiophene-2-carboxamide], O=C(Nc1ccc(Cl)cc1)c1cc(Cl)ccc1NC(=O)c1scc(Cn2cncn2)c1Cl [3-chloro-N-{4-chloro-2-[(4-chlorophenyl)carbamoyl]phenyl}-4-(1H-1,2,4-triazol-1-ylmethyl)thiophene-2-carboxamide], O=C(Nc1ccc(Cl)cc1)c1cc(Cl)ccc1NC(=O)c1scc(Cn2ccnc2)c1Cl [3-chloro-N-{4-chloro-2-[(4-chlorophenyl)carbamoyl]phenyl}-4-(1H-imidazol-1-ylmethyl)thiophene-2-carboxamide], O=C(Nc1ccc(Cl)cc1)c1cc(Cl)ccc1NC(=O)c1scc(Cn2cccn2)c1Cl [3-chloro-N-{4-chloro-2-[(4-chlorophenyl)carbamoyl]phenyl}-4-(1H-pyrazol-1-ylmethyl)thiophene-2-carboxamide], O=C(Nc1ccc(Cl)cc1)c1cc(Cl)ccc1NC(=O)c1scc(Cn2ncnn2)c1Cl [3-chloro-N-{4-chloro-2-[(4-chlorophenyl)carbamoyl]phenyl}-4-(2H-1,2,3,4-tetrazol-2-ylmethyl)thiophene-2-carboxamide], O=C(Nc1ccc(Cl)cc1)c1cc(Cl)ccc1NC(=O)c1scc(Cn2nccn2)c1Cl [3-chloro-N-{4-chloro-2-[(4-chlorophenyl)carbamoyl]phenyl}-4-(2H-1,2,3-triazol-2-ylmethyl)thiophene-2-carboxamide], C[S+]([O-])Cc1csc(C(=O)Nc2ccc(Cl)cc2C(=O)Nc2ccc(Cl)cc2)c1Cl (stereo not drawn) [3-chloro-N-{4-chloro-2-[(4-chlorophenyl)carbamoyl]phenyl}-4-(methanesulfinylmethyl)thiophene-2-carboxamide], CS(=O)(=O)Cc1csc(C(=O)Nc2ccc(Cl)cc2C(=O)Nc2ccc(Cl)cc2)c1Cl [3-chloro-N-{4-chloro-2-[(4-chlorophenyl)carbamoyl]phenyl}-4-(methanesulfonylmethyl)thiophene-2-carboxamide], O=C(Nc1ccc(Cl)cc1)c1cc(Cl)ccc1NC(=O)c1scc(CN2CCOCC2)c1Cl [3-chloro-N-{4-chloro-2-[(4-chlorophenyl)carbamoyl]phenyl}-4-(morpholin-4-ylmethyl)thiophene-2-carboxamide], O=C(Nc1ccc(Cl)cc1)c1cc(Cl)ccc1NC(=O)c1scc(CN2CCSCC2)c1Cl [3-chloro-N-{4-chloro-2-[(4-chlorophenyl)carbamoyl]phenyl}-4-(thiomorpholin-4-ylmethyl)thiophene-2-carboxamide], CN(CCOCCO)Cc1csc(C(=O)Nc2ccc(Cl)cc2C(=O)Nc2ccc(Cl)cc2)c1Cl [3-chloro-N-{4-chloro-2-[(4-chlorophenyl)carbamoyl]phenyl}-4-({[2-(2-hydroxyethoxy)ethyl](methyl)amino}methyl)thiophene-2-carboxamide], CCN(CC)CCN(C)Cc1csc(C(=O)Nc2ccc(Cl)cc2C(=O)Nc2ccc(Cl)cc2)c1Cl [3-chloro-N-{4-chloro-2-[(4-chlorophenyl)carbamoyl]phenyl}-4-({[2-(diethylamino)ethyl](methyl)amino}methyl)thiophene-2-carboxamide], CN(C)CCN(C)Cc1csc(C(=O)Nc2ccc(Cl)cc2C(=O)Nc2ccc(Cl)cc2)c1Cl [3-chloro-N-{4-chloro-2-[(4-chlorophenyl)carbamoyl]phenyl}-4-({[2-(dimethylamino)ethyl](methyl)amino}methyl)thiophene-2-carboxamide], CN(C)CCSCc1csc(C(=O)Nc2ccc(Cl)cc2C(=O)Nc2ccc(Cl)cc2)c1Cl [3-chloro-N-{4-chloro-2-[(4-chlorophenyl)carbamoyl]phenyl}-4-({[2-(dimethylamino)ethyl]sulfanyl}methyl)thiophene-2-carboxamide], O=C(Nc1ccc(Cl)cc1)c1cc(Cl)ccc1NC(=O)c1scc(CNCCCn2ccnc2)c1Cl [3-chloro-N-{4-chloro-2-[(4-chlorophenyl)carbamoyl]phenyl}-4-({[3-(1H-imidazol-1-yl)propyl]amino}methyl)thiophene-2-carboxamide], CN(C)CCCN(C)Cc1csc(C(=O)Nc2ccc(Cl)cc2C(=O)Nc2ccc(Cl)cc2)c1Cl [3-chloro-N-{4-chloro-2-[(4-chlorophenyl)carbamoyl]phenyl}-4-({[3-(dimethylamino)propyl](methyl)amino}methyl)thiophene-2-carboxamide], CN(CCN1CCCC1)Cc1csc(C(=O)Nc2ccc(Cl)cc2C(=O)Nc2ccc(Cl)cc2)c1Cl [3-chloro-N-{4-chloro-2-[(4-chlorophenyl)carbamoyl]phenyl}-4-({methyl[2-(pyrrolidin-1-yl)ethyl]amino}methyl)thiophene-2-carboxamide], O=C(Nc1ccc(Cl)cc1)c1cc(Cl)ccc1NC(=O)c1scc(COCC(O)CO)c1Cl (stereo not drawn) [3-chloro-N-{4-chloro-2-[(4-chlorophenyl)carbamoyl]phenyl}-4-[(2,3-dihydroxypropoxy)methyl]thiophene-2-carboxamide], COCCOCc1csc(C(=O)Nc2ccc(Cl)cc2C(=O)Nc2ccc(Cl)cc2)c1Cl [3-chloro-N-{4-chloro-2-[(4-chlorophenyl)carbamoyl]phenyl}-4-[(2-methoxyethoxy)methyl]thiophene-2-carboxamide], CC(=O)N1CCN(Cc2csc(C(=O)Nc3ccc(Cl)cc3C(=O)Nc3ccc(Cl)cc3)c2Cl)CC1 [3-chloro-N-{4-chloro-2-[(4-chlorophenyl)carbamoyl]phenyl}-4-[(4-acetylpiperazin-1-yl)methyl]thiophene-2-carboxamide], CCN1CCN(Cc2csc(C(=O)Nc3ccc(Cl)cc3C(=O)Nc3ccc(Cl)cc3)c2Cl)CC1 [3-chloro-N-{4-chloro-2-[(4-chlorophenyl)carbamoyl]phenyl}-4-[(4-ethylpiperazin-1-yl)methyl]thiophene-2-carboxamide], CSCc1csc(C(=O)Nc2ccc(Cl)cc2C(=O)Nc2ccc(Cl)cc2)c1Cl [3-chloro-N-{4-chloro-2-[(4-chlorophenyl)carbamoyl]phenyl}-4-[(methylsulfanyl)methyl]thiophene-2-carboxamide], Cc1cccc2sc(C(=O)Nc3ccc(Cl)cc3C(=O)Nc3ccc(Cl)cc3)c(Cl)c12 [3-chloro-N-{4-chloro-2-[(4-chlorophenyl)carbamoyl]phenyl}-4-methyl-1-benzothiophene-2-carboxamide], Cc1csc(C(=O)Nc2ccc(Cl)cc2C(=O)Nc2ccc(Cl)cc2)c1Cl [3-chloro-N-{4-chloro-2-[(4-chlorophenyl)carbamoyl]phenyl}-4-methylthiophene-2-carboxamide], COCCOCCOCc1csc(C(=O)Nc2ccc(Cl)cc2C(=O)Nc2ccc(Cl)cc2)c1Cl [3-chloro-N-{4-chloro-2-[(4-chlorophenyl)carbamoyl]phenyl}-4-{[2-(2-methoxyethoxy)ethoxy]methyl}thiophene-2-carboxamide], CC1(C)OCC(COCc2csc(C(=O)Nc3ccc(Cl)cc3C(=O)Nc3ccc(Cl)cc3)c2Cl)O1 (stereo not drawn) [3-chloro-N-{4-chloro-2-[(4-chlorophenyl)carbamoyl]phenyl}-4-{[(2,2-dimethyl-1,3-dioxolan-4-yl)methoxy]methyl}thiophene-2-carboxamide], CN(Cc1csc(C(=O)Nc2ccc(Cl)cc2C(=O)Nc2ccc(Cl)cc2)c1Cl)CC(O)CO (stereo not drawn) [3-chloro-N-{4-chloro-2-[(4-chlorophenyl)carbamoyl]phenyl}-4-{[(2,3-dihydroxypropyl)(methyl)amino]methyl}thiophene-2-carboxamide], CN(CCO)Cc1csc(C(=O)Nc2ccc(Cl)cc2C(=O)Nc2ccc(Cl)cc2)c1Cl [3-chloro-N-{4-chloro-2-[(4-chlorophenyl)carbamoyl]phenyl}-4-{[(2-hydroxyethyl)(methyl)amino]methyl}thiophene-2-carboxamide], O=C(Nc1ccc(Cl)cc1)c1cc(Cl)ccc1NC(=O)c1sc(CN2CCOCC2)cc1Cl [3-chloro-N-{4-chloro-2-[(4-chlorophenyl)carbamoyl]phenyl}-5-(morpholin-4-ylmethyl)thiophene-2-carboxamide], CN1CCN(Cc2cc(Cl)c(C(=O)Nc3ccc(Cl)cc3C(=O)Nc3ccc(Cl)cc3)s2)CC1 [3-chloro-N-{4-chloro-2-[(4-chlorophenyl)carbamoyl]phenyl}-5-[(4-methylpiperazin-1-yl)methyl]thiophene-2-carboxamide], CN1CCN(Cc2ccc3c(Cl)c(C(=O)Nc4ccc(Cl)cc4C(=O)Nc4ccc(Cl)cc4)sc3c2)CC1 [3-chloro-N-{4-chloro-2-[(4-chlorophenyl)carbamoyl]phenyl}-6-[(4-methylpiperazin-1-yl)methyl]-1-benzothiophene-2-carboxamide]
